Laboratory results published in patent US6498254B1, “Antiretroviral compounds and compositions” (Uniroyal Chemical Company, Inc., priority 2001, dated 2002).
In brackets after ≈: the same amount, converted by molar mass. Read-outs that look alike come from different tables or passages of the source.

Key:
[1] = tested on: HIV-1 (IIIB); assay: Inhibition of HIV-1 syncytium formation in CEM cells; assay type: cell-based; settings: for EC50: read-out: EC50 (μg/ml) HIV-1; for HIV-1 % Protection: protection of CEM cells against virus-induced cytopathicity at the compound concentration in the previous column
Excerpt: (§1) The cell type used to determine activity of the compounds of the invention herein, i.e., the test compounds, against HIV was human T-lymphoblast (CEM) cells obtained from the American Tissue Cell Culture Collection (Rockville, Md.). HIV-1 (IIIB) was originally obtained from the culture of persistently HIV-1 infected H9 cells and was provided by R. C. Gallo and M. Popovic (National Cancer Institute, National Institutes of Health, Bethesda, Md.). HIV-2 (ROD) was originally obtained from L. M. Montagnier (Pasteur Institute, Paris, France).
(§2) To determine the antiviral activity of the test compounds, CEM cells were suspended at a cell density of approximately 300,000 cells per ml of culture medium and infected with approximately 100 CClD50 (100 CClD50 being the 50% cell culture infective dose) of HIV-1 (IIIB) or HIV-2 (ROD)). Then 100 μl of the infected cell suspensions was added to 200 μl micro titer plate wells containing 100 μl of appropriate serial (5-fold) dilutions of the test compounds. The inhibitory effect of the test compounds on HIV-1 or HIV-2 syncytium formation in CEM cells was examined microscopically on day four post infection. The 50% effective concentration (EC50) was defined as the test compound concentration that inhibits syncytium formation in the HIV-1 or HIV-2 infected cell cultures by 50%.
(§3) In some cases, the compounds had considerable cytotoxicity to CEM cells which made determination of the EC50 difficult. In these cases, the percent protection of the cells against virus-induced cytopathicity by the test compounds at the indicated compound concentration in the previous column is given.

[2] = tested on: HIV-2 (ROD); assay: Inhibition of HIV-2 syncytium formation in CEM cells; assay type: cell-based; settings: for EC50: Human immunodeficiency virus 2, CCRF-CEM, read-out: EC50 (μg/ml) HIV-2; for HIV-2 % Protection: protection of CEM cells against virus-induced cytopathicity at the compound concentration in the previous column
Excerpt: as §1, §2, §3

[3] = tested on: CMV Davis strain; assay: Activity against HCMV: virus-induced cytopathicity in HEL cells; assay type: cell-based, human cytomegalovirus (HCMV); settings: for IC50: read-out: Antiviral IC50 (μg/ml) Davis strain; for Antiviral % Inhibition Davis strain: estimate of percent protection of HEL cells at the compound concentration
Experimental: Confluent HEL cells grown in […] microtiter plates were inoculated with CMV at an input of 100 PFU (plaque forming units) per well. After a one to two hour incubation period, residual virus was removed and the infected cells were further incubated with MEM (Minimal Essential Medium) (supplemented with 2% inactivated Fetal Calf Serum (FCS), […], and 0.3% sodium bicarbonate) containing varying concentrations of the test compounds. Antiviral activity was expressed as EC50 (50% effective concentration), or test compound concentration required to reduce virus-induced cytopathicity after seven days by 50% compared to the untreated control.
In some cases, the compounds had considerable cytotoxicity against HEL cells, which made determination of the EC50's difficult. In these cases, an estimate of the percent protection at the compound concentration indicated in the previous columns is given.

[4] = Human immunodeficiency virus 1, CCRF-CEM, HIV-1 (IIIB) infected CEM cells, syncytium formation, day four post infection
[5] = HIV-2 (ROD) infected CEM cells, syncytium formation, day four post infection
[6] = Human betaherpesvirus 5, 168 h, CMV-infected HEL cells, virus-induced cytopathicity after seven days
[7] = Human immunodeficiency virus 1, IIIB, CCRF-CEM
[8] = Human betaherpesvirus 5, HEL, 168 h
[9] = HIV-1 (IIIB) infected CEM cells, syncytium formation, day four post infection
[10] = CMV-infected HEL cells, virus-induced cytopathicity after seven days

## Cc1ccc(C)c(C(C)S(=O)(=O)c2cccc(Cl)[n+]2[O-])c1 (stereo not shown) [Compound 76, 2-[1-(2,5-dimethylphenyl)ethylsulfonyl]-6-chloropyridine-N-oxide]
other
  melting point: 197 to 200 °C
[1]; [4]
  EC50: 0.9 µg/mL (≈ 2.76 µM)
[2]; [5]
  EC50: 2.4 µg/mL (≈ 7.37 µM)
[3]; [6]
  IC50: > 9.1 µg/mL

## Cc1ccc(C)c(C(C)Sc2cc(C)c3ccccc3n2)c1 (stereo not shown) [Compound 162, 2-[[1-(2,5-dimethylphenyl)ethyl]thio]-4-methylquinoline]
other
  melting point: 84 to 85 °C
[1]; [7]
  EC50: > 0.8 µg/mL
[1]
  HIV-1 % Protection: 0.0%
[2]
  EC50: > 0.16 µg/mL
  HIV-2 % Protection: 0.0%
[3]; [8]
  IC50: 1.6 µg/mL (≈ 5.2 µM)

## Cc1ccc(C)c(C(C)S(=O)(=O)c2cc(C)cc(C)[n+]2[O-])c1 (stereo not shown) [Compound 81, 2-[1-(2,5-dimethylphenyl)ethylsulfonyl]-4,6-dimethylpyridine-N-oxide]
other
  melting point: 201 to 204 °C
[1]; [4]
  EC50: ≥ 20 µg/mL
[1]
  HIV-1 % Protection: 37.5%
[2]; [5]
  EC50: > 20 µg/mL
[2]
  HIV-2 % Protection: 0.0%
[3]; [6]
  IC50: 8.6 µg/mL (≈ 26.9 µM)

## O=[N+]([O-])c1cc(CS(=O)(=O)c2cccc[n+]2[O-])ccc1Cl [Compound 64, 2-[[(3-nitro-4-chlorophenyl)methyl]sulfonyl]pyridine-N-oxide]
other
  melting point: 168 to 170 °C
[1]; [4]
  EC50: 1.5 µg/mL (≈ 4.56 µM)
[2]; [5]
  EC50: 1.9 µg/mL (≈ 5.78 µM)
[3]; [6]
  IC50: > 5 µg/mL
[3]
  Antiviral % Inhibition Davis strain: 10.0%

## Cc1ccc(C)c(C(Cl)S(=O)(=O)c2ccccn2)c1 (stereo not shown) [Compound 106, 2[(2,5-dimethylphenyl)chloromethylsulfonyl]pyridine]
other
  melting point: 117 to 119 °C
[1]; [4]
  EC50: 0.9 µg/mL (≈ 3.04 µM)
[2]; [5]
  EC50: > 4 µg/mL
[2]
  HIV-2 % Protection: 0.0%
[3]; [6]
  IC50: 20 µg/mL (≈ 67.6 µM)

## Cc1ccc(C)c(CSc2c(Cl)ccc[n+]2[O-])c1 [Compound 133, 3-chloro-2-[[(2,5-dimethylphenyl)methyl]thio]pyridine-N-oxide]
[1]; [7]
  EC50: 0.14 µg/mL (≈ 0.5 µM)
[2]
  EC50: > 20 µg/mL
  HIV-2 % Protection: 0.0%
[3]; [8]
  IC50: 25 µg/mL (≈ 89.4 µM)

## Cc1ccc(C)c(CSc2ccccn2)c1 [Compound 148, 2-((2,5-dimethylphenyl)methylthio) pyridine]
[1]; [7]
  EC50: > 20 µg/mL
[2]
  EC50: > 20 µg/mL
[3]; [8]
  IC50: 0.4 µg/mL (≈ 1.74 µM)

## 1,4[1,2,4,5-tetramethylbenzyl]-bis-(2′-sulfonylpyridine-N-oxide) [Compound 25]
[1]; [9]
  EC50 (μg/ml) HIV-1: 10.00 µg/mL
[2]
  HIV-2 % Protection: 37.5%
[3]; [10]
  Antiviral IC50 (μg/ml) Davis strain: 16.0 µg/mL

## [O-][n+]1c(Cl)cccc1SCc1ccccc1 [Compound 149, 6-chloro-(2-benzylthio)pyridine-N-oxide]
other
  melting point: 112 to 115 °C
[1]; [7]
  EC50: 9 µg/mL (≈ 35.8 µM)
[2]
  EC50: 16 µg/mL (≈ 63.6 µM)
[3]; [8]
  IC50: 20 µg/mL (≈ 79.4 µM)

## Cc1ccc(C)c(CSc2ccccn2)c1.Cl [Compound 157, 2-(2,5-dimethylphenylmethylthio)pyridine hydrochloride]
[1]; [4]
  EC50: 6 µg/mL
[2]; [5]
  EC50: ≥ 20 µg/mL
[2]
  HIV-2 % Protection: 37.5%
[3]; [6]
  IC50: > 50 µg/mL
[3]
  Antiviral % Inhibition Davis strain: 0.0%

## Cc1cc(CS(=O)(=O)c2cccc[n+]2[O-])ccc1[N+](=O)[O-] [Compound 66, 2-[[(3-methyl-4-nitrophenyl)methyl]sulfonyl]pyridine-N-oxide]
[1]; [4]
  EC50: 3.1 µg/mL (≈ 10.1 µM)
[2]; [5]
  EC50: 2.5 µg/mL (≈ 8.11 µM)
[3]; [6]
  IC50: 5 µg/mL (≈ 16.2 µM)

## [O-][n+]1cccc(Cl)c1[S+]([O-])Cc1ccccc1 (stereo not shown) [Compound 136, 3-chloro-2-[(phenylmethyl)sulfinyl]pyridine-N-oxide]
[1]; [4]
  EC50: 1.5 µg/mL (≈ 5.6 µM)
[2]; [5]
  EC50: > 4 µg/mL
[2]
  HIV-2 % Protection: 0.0%
[3]; [6]
  IC50: 4.7 µg/mL (≈ 17.6 µM)

## Cc1ccc(C)c(C(C)S(=O)(=O)c2c(Cl)ccc[n+]2[O-])c1 (stereo not shown) [Compound 124, 3-chloro-2-[[1-(2,5-dimethylphenyl)ethyl]sulfonyl]pyridine-N-oxide]
[1]; [4]
  EC50: > 0.8 µg/mL
[1]
  HIV-1 % Protection: 0.0%
[2]; [5]
  EC50: > 0.8 µg/mL
[2]
  HIV-2 % Protection: 0.0%
[3]; [6]
  IC50: > 5 µg/mL
[3]
  Antiviral % Inhibition Davis strain: 10.0%

## 2-[(3-methoxy-4-benzyloxy)phenylmethylsulfonyl]pyridine-N-oxide [Compound 61]
[1]; [9]
  EC50 (μg/ml) HIV-1: >4 µg/mL
[1]
  HIV-1 % Protection: 0.0%
[2]; [5]
  EC50 (μg/ml) HIV-2: >4.0 µg/mL
[2]
  HIV-2 % Protection: 6.0%
[3]; [10]
  Antiviral IC50 (μg/ml) Davis strain: 14.0 µg/mL

## CC(C)c1cc(CS(=O)(=O)c2cccc[n+]2[O-])c(C(C)C)cc1Br [Compound 63, 2-[[[2,5-bis(1-methylethyl)-4-bromophenyl]methyl]sulfonyl]pyridine-N-oxide]
[1]; [4]
  EC50: 2.3 µg/mL (≈ 5.58 µM)
[2]; [5]
  EC50: 2.5 µg/mL (≈ 6.06 µM)
[3]; [6]
  IC50: 3.7 µg/mL (≈ 8.97 µM)

## COc1cc(C=C(C#N)Sc2cccc[n+]2[O-])cc(OC)c1OC [Compound 160, 2-[1-cyano-2-(3,4,5-trimethoxyphenyl)ethenethio]pyridine-N-oxide]
[1]; [7]
  EC50: > 20 µg/mL
[1]
  HIV-1 % Protection: 0.0%
[2]
  EC50: > 20 µg/mL
  HIV-2 % Protection: 0.0%
[3]; [8]
  IC50: 7 µg/mL (≈ 20.3 µM)

## O=S(=O)(Cc1c2ccccc2cc2ccccc12)c1cccc[n+]1[O-] [Compound 51, 2[1-(9-anthryl)methylsulfonyl]pyridine-N-oxide]
[1]; [4]
  EC50: > 0.8 µg/mL
[1]
  HIV-1 % Protection: 0.0%
[2]; [5]
  EC50: > 0.8 µg/mL
[2]
  HIV-2 % Protection: 0.0%
[3]; [6]
  IC50: 1.3 µg/mL (≈ 3.72 µM)

## Cc1ccc[n+]([O-])c1[S+]([O-])Cc1c(Cl)cccc1Cl (stereo not shown) [Compound 138, 2-[[(2,6-dichlorophenyl)methyl]sulfinyl]-3-methyl-pyridine-N-oxide]
[1]; [4]
  EC50: > 100 µg/mL
[1]
  HIV-1 % Protection: 0.0%
[2]; [5]
  EC50: > 100 µg/mL
[2]
  HIV-2 % Protection: 0.0%
[3]; [6]
  IC50: > 50 µg/mL
[3]
  Antiviral % Inhibition Davis strain: 20.0%
